Measured values as given in US20230227453A1 (priority 2020, published 2023).
pEC50, pIC50: −log10 of the molar value.

Key:
[1] = biological target: T1, 5-HT2C edited (accession number AAF35842.1) (Homo sapiens, UniProt P28335, I156V/I160V/N158S); assay: biochemical; format: binding
Target sequence in this assay (P28335 whole entry I156V/N158S/I160V, looked up): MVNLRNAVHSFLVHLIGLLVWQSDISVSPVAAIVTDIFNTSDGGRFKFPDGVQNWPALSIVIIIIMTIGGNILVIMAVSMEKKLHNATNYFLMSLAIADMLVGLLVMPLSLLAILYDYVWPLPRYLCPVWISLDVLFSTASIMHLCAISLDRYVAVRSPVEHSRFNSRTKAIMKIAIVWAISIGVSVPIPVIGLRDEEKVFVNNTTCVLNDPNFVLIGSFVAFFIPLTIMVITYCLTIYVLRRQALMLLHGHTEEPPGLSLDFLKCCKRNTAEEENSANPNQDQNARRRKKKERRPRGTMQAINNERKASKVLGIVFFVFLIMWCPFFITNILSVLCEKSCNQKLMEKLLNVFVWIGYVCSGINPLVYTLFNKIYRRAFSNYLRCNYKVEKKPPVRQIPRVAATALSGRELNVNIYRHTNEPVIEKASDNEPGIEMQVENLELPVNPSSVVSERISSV

[2] = biological target: T1, 5-HT2C edited (accession number AAF35842.1); assay: cell-based
Target sequence in this assay (P28335 33-458 I156V/N158S/I160V limits assumed): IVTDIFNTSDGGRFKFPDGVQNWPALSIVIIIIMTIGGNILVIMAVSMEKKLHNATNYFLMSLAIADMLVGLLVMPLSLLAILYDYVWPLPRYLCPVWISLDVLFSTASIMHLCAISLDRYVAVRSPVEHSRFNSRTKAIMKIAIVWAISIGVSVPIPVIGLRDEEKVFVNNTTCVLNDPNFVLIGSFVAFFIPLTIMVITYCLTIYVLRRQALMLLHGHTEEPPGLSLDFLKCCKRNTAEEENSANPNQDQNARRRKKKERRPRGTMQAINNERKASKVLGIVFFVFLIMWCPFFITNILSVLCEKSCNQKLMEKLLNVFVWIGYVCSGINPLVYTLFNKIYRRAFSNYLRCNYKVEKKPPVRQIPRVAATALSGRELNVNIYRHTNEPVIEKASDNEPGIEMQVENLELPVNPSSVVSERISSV

How did the pIC50 [1] turn out when `Cc1ccc2c3c(n(C)c2n1)CCN(C1COC1)CC3` [Example 11, 2,10-dimethyl-7-(oxetan-3-yl)-5,6,7,8,9,10-hexahydropyrido[3′,2′:4,5]pyrrolo[2,3-d]azepine] was run?
The pIC50 was 5.00 to 6.00.

What about the pEC50 [2] of the same molecule?
Its pEC50 is < 5.00.

`Cn1c2c(c3cc(Cl)cnc31)CCN(C1COC1)CC2` [Example 29, 3-chloro-10-methyl-7-(oxetan-3-yl)-5,6,7,8,9,10-hexahydropyrido[3′,2′:4,5]pyrrolo[2,3-d]azepine] was tested. Which pIC50 [1] did it give?
The pIC50 was 5.00 to 6.00.

What about the pEC50 [2] of the same molecule?
The pEC50 was 5.00 to 6.00.

Which results are given for `COc1ccc2c3c([nH]c2n1)CCNCC3` [Example 2, 2-methoxy-5,6,7,8,9,10-hexahydropyrido[3′,2′:4,5]pyrrolo[2,3-d]azepine]?
pIC50 [1]: 6.00 to 7.00; pEC50 [2]: 7.00 to 8.00

With `COc1ccc2c3c([nH]c2n1)CCN(C)CC3` [Example 1, 2-methoxy-7-methyl-5,6,7,8,9,10-hexahydropyrido[3′,2′:4,5]pyrrolo[2,3-d]azepine] as the molecule, how does the pIC50 [1] read?
The pIC50 was 5.00 to 6.00.

What about the pEC50 [2] of the same molecule?
The pEC50 was 6.00 to 7.00.

With `CN1CCc2[nH]c3ncc(Cl)cc3c2CC1` [Example 26, 3-chloro-7-methyl-5,6,7,8,9,10-hexahydropyrido[3′,2′:4,5]pyrrolo[2,3-d]azepine] as the molecule, how does the pIC50 [1] read?
The pIC50 was 7.00 to 8.00.

And the pEC50 [2]?
Its pEC50 is 7.00 to 8.00.

Which results are given for `Cn1c2c(c3cccnc31)CCNCC2` [Example 18, 10-methyl-5,6,7,8,9,10-hexahydropyrido[3′,2′:4,5]pyrrolo[2,3-d]azepine]?
pIC50 [1]: 7.00 to 8.00; pEC50 [2]: > 8.00

`Clc1cnc2[nH]c3c(c2c1)CCNCC3` [Example 13, 3-chloro-5,6,7,8,9,10-hexahydropyrido[3′,2′:4,5]pyrrolo[2,3-d] azepine] was tested. Which pIC50 [1] did it give?
The pIC50 was 7.00 to 8.00.

What about the pEC50 [2] of the same molecule?
Its pEC50 is > 8.00.

How did the pIC50 [1] turn out when `COc1ccc2c3c(n(C)c2n1)CCN(C)CC3` [Example 3, 2-methoxy-7,10-dimethyl-5,6,7,8,9,10-hexahydropyrido[3′,2′:4,5]pyrrolo[2,3-d]azepine] was run?
Its pIC50 is 6.00 to 7.00.

What about the pEC50 [2] of the same molecule?
The pEC50 was 6.00 to 7.00.

With `COc1ccc2c3c(n(C)c2n1)CCN(C1COC1)CC3` [Example 6, 2-methoxy-10-methyl-7-(oxetan-3-yl)-5,6,7,8,9,10-hexahydropyrido[3′,2′:4,5]pyrrolo[2,3-d]azepine] as the molecule, how does the pIC50 [1] read?
Its pIC50 is 5.00 to 6.00.

And the pEC50 [2]?
Its pEC50 is 6.00 to 7.00.

Which results are given for `c1cnc2[nH]c3c(c2c1)CCN(C1COC1)CC3` [Example 22, 7-(oxetan-3-yl)-5,6,7,8,9,10-hexahydropyrido[3′,2′:4,5]pyrrolo[2,3-d]azepine]?
pIC50 [1]: < 5.00; pEC50 [2]: 5.00 to 6.00

How did the pIC50 [1] turn out when `Cn1c2c(c3cc(Cl)cnc31)CCNCC2` [Example 28, 3-chloro-10-methyl-5,6,7,8,9,10-hexahydropyrido[3′,2′:4,5]pyrrolo[2,3-d]azepine] was run?
The pIC50 was 7.00 to 8.00.

And the pEC50 [2]?
The pEC50 was 7.00 to 8.00.

With `Cn1c2c(c3ccc(Br)nc31)CCNCC2` [Example 25, 2-bromo-10-methyl-5,6,7,8,9,10-hexahydropyrido[3′,2′:4,5]pyrrolo[2,3-d]azepine] as the molecule, how does the pIC50 [1] read?
Its pIC50 is 7.00 to 8.00.

And the pEC50 [2]?
The pEC50 was > 8.00.

What does the source list for `COc1ccc2[nH]c3c(c2n1)CCN(C)CC3` [Example 15, 2-methoxy-8-methyl-5,6,7,8,9,10-hexahydropyrido[2′,3′:4,5]pyrrolo[2,3-d]azepine]?
pIC50 [1]: 7.00 to 8.00; pEC50 [2]: 7.00 to 8.00

`c1cnc2[nH]c3c(c2c1)CCNCC3` [Example 17, 5,6,7,8,9,10-hexahydropyrido[3′,2′:4,5] pyrrolo[2,3-d] azepine] was tested. Which pIC50 [1] did it give?
The pIC50 was 7.00 to 8.00.

What about the pEC50 [2] of the same molecule?
Its pEC50 is > 8.00.

What does the source list for `CN1CCc2c(n(C)c3ncccc23)CC1` [Example 21, 7,10-dimethyl-5,6,7,8,9,10-hexahydropyrido[3′,2′:4,5]pyrrolo[2,3-d]azepine]?
pIC50 [1]: 7.00 to 8.00; pEC50 [2]: 7.00 to 8.00

`COc1ccc2c3c(n(C)c2n1)CCNCC3` [Example 5, 2-methoxy-10-methyl-5,6,7,8,9,10-hexahydropyrido[3′,2′:4,5]pyrrolo[2,3-d]azepine] was tested. Which pIC50 [1] did it give?
The pIC50 was 7.00 to 8.00.

And the pEC50 [2]?
Its pEC50 is 7.00 to 8.00.

What does the source list for `Brc1ccc2c3c([nH]c2n1)CCNCC3` [Example 16, 2-bromo-5,6,7,8,9,10-hexahydropyrido[3′,2′:4,5]pyrrolo[2,3-d]azepine]?
pIC50 [1]: 7.00 to 8.00; pEC50 [2]: > 8.00

Which results are given for `Cc1ccc2c3c([nH]c2n1)CCNCC3` [Example 8, 2-methyl-5,6,7,8,9,10-hexahydropyrido[3′,2′:4,5]pyrrolo[2,3-d]azepine]?
pIC50 [1]: 6.00 to 7.00; pEC50 [2]: 7.00 to 8.00

How did the pIC50 [1] turn out when `CN1CCc2[nH]c3ncccc3c2CC1` [Example 20, 7-methyl-5,6,7,8,9,10-hexahydropyrido[3′,2′:4,5]pyrrolo[2,3-d]azepine] was run?
Its pIC50 is 7.00 to 8.00.

And the pEC50 [2]?
The pEC50 was 7.00 to 8.00.

`Cc1ccc2c3c([nH]c2n1)CCN(C1COC1)CC3` [Example 9, 2-methyl-7-(oxetan-3-yl)-5,6,7,8,9,10-hexahydropyrido[3′,2′:4,5]pyrrolo[2,3-d]azepine] was tested. Which pIC50 [1] did it give?
Its pIC50 is < 5.00.

And the pEC50 [2]?
The pEC50 was < 5.00.

Which results are given for `Cc1ccc2c3c(n(C)c2n1)CCN(C)CC3` [Example 12, 2,7,10-trimethyl-5,6,7,8,9,10-hexahydropyrido[3′,2′:4,5]pyrrolo[2,3-d]azepine]?
pIC50 [1]: 6.00 to 7.00; pEC50 [2]: 6.00 to 7.00

`Clc1cnc2[nH]c3c(c2c1)CCN(C1COC1)CC3` [Example 27, 3-chloro-7-(oxetan-3-yl)-5,6,7,8,9,10-hexahydropyrido[3′,2′:4,5]pyrrolo[2,3-d]azepine] was tested. Which pIC50 [1] did it give?
Its pIC50 is 6.00 to 7.00.

And the pEC50 [2]?
Its pEC50 is 6.00 to 7.00.

Which results are given for `COc1ccc2c3c([nH]c2n1)CCN(C1COC1)CC3` [Example 4, 2-methoxy-7-(oxetan-3-yl)-5,6,7,8,9,10 hexahydropyrido[3′,2′:4,5]pyrrolo[2,3-d]azepine]?
pIC50 [1]: < 5.00; pEC50 [2]: < 5.00

How did the pIC50 [1] turn out when `Brc1ccc2c3c([nH]c2n1)CCN(C1COC1)CC3` [Example 24, 2-bromo-7-(oxetan-3-yl)-5,6,7,8,9,10-hexahydropyrido[3′,2′:4,5]pyrrolo[2,3-d]azepine] was run?
Its pIC50 is 6.00 to 7.00.

And the pEC50 [2]?
Its pEC50 is 6.00 to 7.00.

How did the pIC50 [1] turn out when `CN1CCc2c(n(C)c3ncc(Cl)cc23)CC1` [Example 30, 3-chloro-7,10-dimethyl-5,6,7,8,9,10-hexahydropyrido[3′,2′:4,5]pyrrolo[2,3-d]azepine] was run?
Its pIC50 is 7.00 to 8.00.

What about the pEC50 [2] of the same molecule?
Its pEC50 is 7.00 to 8.00.

Which results are given for `CN1CCc2[nH]c3nc(Br)ccc3c2CC1` [Example 19, 2-bromo-7-methyl-5,6,7,8,9,10-hexahydropyrido[3′,2′:4,5]pyrrolo[2,3-d]azepine]?
pIC50 [1]: 6.00 to 7.00; pEC50 [2]: 7.00 to 8.00

`Cn1c2c(c3cccnc31)CCN(C1COC1)CC2` [Example 23, 10-methyl-7-(oxetan-3-yl)-5,6,7,8,9,10-hexahydropyrido[3′,2′:4,5]pyrrolo[2,3-d]azepine] was tested. Which pIC50 [1] did it give?
The pIC50 was 5.00 to 6.00.

And the pEC50 [2]?
The pEC50 was 5.00 to 6.00.

How did the pIC50 [1] turn out when `COc1cc2c3c([nH]c2cn1)CCN(C)CC3` [Example 14, 3-methoxy-7-methyl-5,6,7,8,9,10-hexahydropyrido[4′,3′:4,5]pyrrolo[2,3-d]azepine] was run?
The pIC50 was < 5.00.

And the pEC50 [2]?
Its pEC50 is < 5.00.

Which results are given for `Cc1ccc2c3c([nH]c2n1)CCN(C)CC3` [Example 7, 2,7-dimethyl-5,6,7,8,9,10-hexahydropyrido[3′,2′:4,5]pyrrolo[2,3-d]azepine]?
pIC50 [1]: 6.00 to 7.00; pEC50 [2]: 6.00 to 7.00

`Cc1ccc2c3c(n(C)c2n1)CCNCC3` [Example 10, 2,10-dimethyl-5,6,7,8,9,10-hexahydropyrido[3′,2′:4,5]pyrrolo[2,3-d]azepine] was tested. Which pIC50 [1] did it give?
The pIC50 was 6.00 to 7.00.

And the pEC50 [2]?
The pEC50 was 7.00 to 8.00.
